Data published in BigSolDB 2.1.

CCCCCOC(=O)Nc1nc(=O)n([C@@H]2O[C@H](C)[C@@H](O)[C@H]2O)cc1F
Conditions	solubility (mole fraction)
in 2-ethylhexanol, 278.02 K	0.0011
in 2-ethylhexanol, 282.93 K	0.0013
in 2-ethylhexanol, 287.88 K	0.0019
in 2-ethylhexanol, 292.57 K	0.0027
in 2-ethylhexanol, 297.38 K	0.0036
in 2-ethylhexanol, 302.24 K	0.005
in 2-ethylhexanol, 307.13 K	0.0069
in 2-ethylhexanol, 312.04 K	0.0096
in 2-ethylhexanol, 316.73 K	0.0125
in 2-ethylhexanol, 321.76 K	0.0173
in 2-octanol, 278.04 K	0.001
in 2-octanol, 282.95 K	0.0014
in 2-octanol, 287.9 K	0.0018
in 2-octanol, 292.55 K	0.0025
in 2-octanol, 298.45 K	0.0036
in 2-octanol, 302.3 K	0.0047
in 2-octanol, 307.15 K	0.0064
in 2-octanol, 312.05 K	0.0087
in 2-octanol, 317.75 K	0.0116
in 2-octanol, 322.2 K	0.0151
in ethanol, 278.25 K	0.0099
in ethanol, 282.86 K	0.0123
in ethanol, 287.85 K	0.017
in ethanol, 292.84 K	0.0247
in ethanol, 297.75 K	0.0353
in ethanol, 302.55 K	0.048
in ethanol, 307.25 K	0.0676
in ethanol, 312.14 K	0.0933
in ethanol, 317.35 K	0.127
in ethanol, 322.13 K	0.166
in ethylene glycol, 278.65 K	0.01
in ethylene glycol, 283.15 K	0.0125
in ethylene glycol, 287.95 K	0.017
in ethylene glycol, 293 K	0.021
in ethylene glycol, 297.95 K	0.0267
in ethylene glycol, 302.95 K	0.0348
in ethylene glycol, 307.65 K	0.0437
in ethylene glycol, 312.1 K	0.0539
in ethylene glycol, 316.85 K	0.0661
in ethylene glycol, 322.25 K	0.0877
in isobutanol, 278.26 K	0.0012
in isobutanol, 283.15 K	0.0018
in isobutanol, 288.1 K	0.0029
in isobutanol, 293.38 K	0.0046
in isobutanol, 298.02 K	0.007
in isobutanol, 302.85 K	0.0107
in isobutanol, 307.4 K	0.0156
in isobutanol, 312.25 K	0.0232
in isobutanol, 316.95 K	0.0336
in isobutanol, 321.95 K	0.0492
in isopentanol, 278.25 K	0.0027
in isopentanol, 282.97 K	0.0038
in isopentanol, 288.76 K	0.0057
in isopentanol, 292.64 K	0.0074
in isopentanol, 297.33 K	0.0102
in isopentanol, 302.27 K	0.0141
in isopentanol, 307.06 K	0.0193
in isopentanol, 312.04 K	0.0267
in isopentanol, 316.78 K	0.0361
in isopentanol, 321.47 K	0.0485
in isopropanol, 277.98 K	0.0011
in isopropanol, 283.49 K	0.0016
in isopropanol, 288.07 K	0.0024
in isopropanol, 293.16 K	0.0037
in isopropanol, 297.34 K	0.0053
in isopropanol, 302.29 K	0.0079
in isopropanol, 307.07 K	0.0115
in isopropanol, 312.14 K	0.017
in isopropanol, 316.88 K	0.0241
in isopropanol, 321.47 K	0.034
in n-butanol, 278.1 K	0.0021
in n-butanol, 283.03 K	0.003
in n-butanol, 288.02 K	0.0045
in n-butanol, 293.53 K	0.007
in n-butanol, 298 K	0.0106
in n-butanol, 303.15 K	0.016
in n-butanol, 308.25 K	0.0239
in n-butanol, 312.35 K	0.0351
in n-butanol, 317.4 K	0.051
in n-butanol, 322.49 K	0.077
in n-heptanol, 278 K	0.0018
in n-heptanol, 283.15 K	0.0025
in n-heptanol, 288.33 K	0.0036
in n-heptanol, 292.53 K	0.0047
in n-heptanol, 297.63 K	0.0065
in n-heptanol, 303.3 K	0.0092
in n-heptanol, 308.35 K	0.0126
in n-heptanol, 313.25 K	0.017
in n-heptanol, 318.05 K	0.0226
in n-heptanol, 322.85 K	0.0299
in n-hexanol, 278.1 K	0.0018
in n-hexanol, 284.33 K	0.0029
in n-hexanol, 287.97 K	0.0038
in n-hexanol, 293.85 K	0.006
in n-hexanol, 297.6 K	0.008
in n-hexanol, 303.55 K	0.0125
in n-hexanol, 308.55 K	0.0173
in n-hexanol, 313.15 K	0.0241
in n-hexanol, 317.75 K	0.0333
in n-hexanol, 322.25 K	0.0461
in n-octanol, 278.65 K	0.0022
in n-octanol, 283 K	0.003
in n-octanol, 287.98 K	0.004
in n-octanol, 292.95 K	0.0055
in n-octanol, 298.35 K	0.0076
in n-octanol, 302.94 K	0.01
in n-octanol, 307.5 K	0.0131
in n-octanol, 312.35 K	0.0173
in n-octanol, 317.05 K	0.0226
in n-octanol, 322.05 K	0.0307
in n-pentanol, 278.2 K	0.002
in n-pentanol, 282.97 K	0.0031
in n-pentanol, 288.26 K	0.0051
in n-pentanol, 292.64 K	0.0071
in n-pentanol, 297.33 K	0.0101
in n-pentanol, 302.27 K	0.0146
in n-pentanol, 307.06 K	0.0205
in n-pentanol, 312.04 K	0.0292
in n-pentanol, 316.78 K	0.0404
in n-pentanol, 321.47 K	0.0555
in n-propanol, 278 K	0.0024
in n-propanol, 283.06 K	0.0037
in n-propanol, 287.98 K	0.0055
in n-propanol, 292.87 K	0.0088
in n-propanol, 297.33 K	0.0132
in n-propanol, 302.29 K	0.0205
in n-propanol, 307.07 K	0.0309
in n-propanol, 312.14 K	0.0471
in n-propanol, 316.88 K	0.0687
in n-propanol, 321.47 K	0.0997
in sec-butanol, 278.15 K	0.001
in sec-butanol, 283.17 K	0.0016
in sec-butanol, 288.13 K	0.0026
in sec-butanol, 293.35 K	0.0043
in sec-butanol, 298.44 K	0.0065
in sec-butanol, 302.9 K	0.0093
in sec-butanol, 307.65 K	0.014
in sec-butanol, 312.44 K	0.0207
in sec-butanol, 317.25 K	0.0301
in sec-butanol, 321.9 K	0.0428
in tert-butanol, 299.65 K	0.0078
in tert-butanol, 302.75 K	0.0096
in tert-butanol, 307.43 K	0.0139
in tert-butanol, 312.2 K	0.0199
in tert-butanol, 317.04 K	0.0294
in tert-butanol, 321.65 K	0.0423
in water, 278.25 K	0.0009
in water, 283.2 K	0.001
in water, 288.3 K	0.001
in water, 293.25 K	0.0011
in water, 298.25 K	0.0012
in water, 302.8 K	0.0013
in water, 308 K	0.0014
in water, 312.95 K	0.0015
in water, 317.65 K	0.0016
in water, 322.75 K	0.0017
